Measurements taken from the supplement of paper PMC6723410.

Test system: GUMC-403
Assay: viability at highest tested concentration (max response) relative to DMSO (% of DMSO control); higher = less cytotoxic
Conditions: library / dose series: MIPE library, 11-point 1:3 dilution; top concentration 46.1 µM; 48 h
In short: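 In 1536-well plates, 700 GUMC-403 papilloma cells per well, taken from a patient and grown by conditional reprogramming, were seeded in 5 μL F + Y medium and incubated overnight at 37 °C. Compounds were pinned in at 23 nL in an 11-point 1:3 series, and left for 48 h before CellTiter-Glo luminescence was read on a ViewLux against vehicle (100%) and empty (0%) wells. Reported values are viability at the highest tested concentration relative to vehicle control.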

Row | Compound | viability
1 | CCCCc1ccc(N[S+](=O)([O-])c2ccc(C)c(C(=O)N3CCN(c4cccc(C)c4C)CC3)c2)cc1 | 111
2 | C=C1/C(=C\C=C2/CCC[C@]3(C)[C@@H]([C@H](C)CCCC(C)(C)O)CC[C@@H]23)C[C@@H](O)C[C@@H]1O | 145
3 | CC(C)C[C@H](CC(=O)O)C(=O)N[C@@H](Cc1c[nH]c2ccccc12)C(=O)N[C@@H](C)c1ccccc1 | 108
4 | O=C(c1ccc(C(=O)N2CCC(N3CCCC3)CC2)c(Nc2ccccc2)c1)N1CCC(N2CCCC2)CC1 | 109
5 | COC1=CC=C(C=C1O)C/2=C/C(=O)C3=C(O2)C=C(O[C@@H]4O[C@H](CO[C@@H]5O[C@@H](C)[C@H](O)[C@@H](O)[C@H]5O)[C@@H](O)[C@H](O)[C@H]4O)C=C3O | 117
6 | OCCn1cc(-c2ccc3c(c2)CC/C3=N\O)c(-c2ccncc2)n1 | 94.5
7 | CC(=O)OCCN1C(=O)c2c(C)nc3ccc([S+](=O)([O-])N4CCOCC4)cc3c2C1=O | 123
8 | CCN1\C=C(\C(O)=O)C(=O)C2=C1N=C(N3CCNCC3)C(=C2)F | 95.7
9 | O=C(O)c1cccnc1Nc1cccc(C(F)(F)F)c1 | 129
10 | CCOC(=O)c1ncn2c1CN(C)C(=O)c1cc(F)ccc1-2 | 108
11 | C[N]1C=C(C2=C1C=CC=C2)\C3=C(\C(=O)NC3=O)C4=C5CC(CN)CC[N]5C6=C4C=CC=C6 (centres undefined) | 42.9
12 | CN(C)c1ccc(-c2nc3c(N4CCN(CC(=O)Nc5nccs5)CC4)c(Cl)cnc3[nH]2)cc1 | 110
13 | Cl.c1cnc2cc3c(cc2n1)C1CNCC3C1 | 107
14 | CC(C)N(CCCNC(=O)Nc1ccc(C(C)(C)C)cc1)C[C@H]1O[C@@H](n2cc(Br)c3c(N)ncnc32)[C@H](O)[C@@H]1O | 89.1
15 | CC(C)OC(=O)/C1=C/N(CC(C)(C)C2=C1[NH]C3=CC=CC=C23)C(=O)C4=CC=C(F)C(=C4)F | 107
16 | COc1ccc(-c2nc3cc(C4=NNC(=O)CC4C)ccc3[nH]2)cc1 (centres undefined) | 119
17 | CN(C)CCc1c[nH]c2ccc(C[C@H]3COC(=O)N3)cc12 | 106
18 | NC(CO)(CO)CCc1ccc(Sc2cccc(OCc3ccccc3)c2)cc1Cl | 118
19 | Cc1nc(C(=O)NCC(=O)O)c(O)c2ccc(Oc3ccccc3)cc12 | 132
20 | CCN(CC)CCOc1ccc(/C(=C(\Cl)c2ccccc2)c2ccccc2)cc1 | 114
21 | Oc1ccc(C2CNCCc3c2cc(O)c(O)c3Cl)cc1 (centres undefined) | 120
22 | C[C@@]12C[C@@]3(O)O[C@@H](O1)[C@]1(COC(=O)c4ccccc4)[C@H]3C[C@@]12O[C@@H]1O[C@H](CO)[C@@H](O)[C@H](O)[C@H]1O | 115

Row | Compound | viability
23 | CCC(C)N(C)C(=O)c1cc2ccccc2c(-c2ccccc2Cl)n1 (centres undefined) | 96.7
24 | CNc1nc(Nc2ccc(C(=O)N3CCOCC3)cc2OC)ncc1Cl | 108
25 | CCNC(=O)Nc1ccc(Oc2ncnc(N)c2/C=N/OC)cc1Cl | 109
26 | Cn1cc(-c2ccc3nnc(C(F)(F)c4ccc5ncccc5c4)n3n2)cn1 | 110
27 | Cc1nc(NC(=O)N2CCC[C@H]2C(N)=O)sc1-c1ccnc(C(C)(C)C(F)(F)F)c1 | 42.4
28 | CCOC(=O)N1c2ccc(C(F)(F)F)cc2[C@@H](N(Cc2cc(C(F)(F)F)cc(C(F)(F)F)c2)C(=O)OC)C[C@H]1CC | 87.7
29 | N=C1S/C(=C\c2ccc(-c3ccc4c(c3)C(=O)NC4=O)o2)C(=O)N1c1ccc(Br)cc1 | 142
30 | COc1ccc(-n2c(C)c([N+](=O)[O-])c3ccc(O)cc32)cc1 | 87
31 | NC(=O)c1c(OCc2c(F)cc(Br)cc2F)nsc1NC(=O)NCCCCN1CCCC1 | 101
32 | CCC(C)(C)c1ccc(CC(C)CN2C[C@@H](C)O[C@@H](C)C2)cc1 (some centres undefined) | 96.2
33 | CCOc1ccccc1OCCNC(C)Cc1ccc(OC)c([S+](N)(=O)[O-])c1 (centres undefined) | 135
34 | C\C1=C(\C=C(\C#N)C(=O)N1)C2=CC=NC=C2 | 119
35 | CC/C(=C(\c1ccccc1)c1ccc(OCCN(C)C)cc1)c1ccccc1 | 96
36 | CCOC(=O)Nc1ccc(NCc2ccc(F)cc2)nc1N | 102
37 | CCNC(=O)Nc1ccc2ncc(Nc3ccc(C)cc3)nc2n1 | 108
38 | N#CCNC(=O)c1ccc(-c2ccnc(Nc3ccc(N4CCOCC4)cc3)n2)cc1 | 9.51
39 | c1coc(CNc2ncnc3nc[nH]c23)c1 | 108
40 | C[C@H]1C[C@@H]2[C@H](CC[C@@]3(C)[C@H]2CC[C@]3(OC(C)=O)C(C)=O)[C@@]\4(C)CCC(=O)\C=C14 | 147
41 | COc1cc2c(cc1OC)CC(=O)N(CCCN(C)C[C@H]1Cc3cc(OC)c(OC)cc31)CC2.Cl | 129
42 | N/C1=N/C(=O)C/2=C(NC[C@@H](CNC3=CC=C(C=C3)C(=O)N[C@@H](CCC([O-])=O)C([O-])=O)N2C=O)\N1 | 132
43 | NC/1=N/C(=O)N(/C=N1)[C@@H]2O[C@H](CO)[C@@H](O)[C@H]2O | 103
44 | CC(O)(C[S+](=O)([O-])c1ccc(F)cc1)C(=O)Nc1ccc(C#N)c(C(F)(F)F)c1 (centres undefined) | 114

Row | Compound | viability
45 | Nc1ncnc2ccccc12 | 127
46 | Oc1ccc(-c2nc(-c3ccncc3)c(-c3ccc(F)cc3)[nH]2)cc1 | 102
47 | COc1ccc(-c2oc3cc(OC)ccc3c2C(=O)c2ccc(C#N)cc2)cc1 | 142
48 | CN(C)[S+](=O)([O-])c1ccc2c(c1)C(=Cc1cc3c([nH]1)CCCC3)C(=O)N2 | 122
49 | N[C@@H]1CONC1=O | 127
50 | O=C(CCCCCCC(=O)Nc1cccnc1)NO | 111
51 | Cc1noc(N[S+](=O)([O-])c2ccc(N)cc2)c1C | 130
52 | NC(=O)c1cccc2nc(-c3ccc([C@H]4CCCN4)cc3F)[nH]c12 | 116
53 | COc1cc([C@H]2Oc3cc([C@H]4Oc5cc(O)cc(O)c5C(=O)[C@@H]4O)ccc3O[C@@H]2CO)ccc1O | 83.9
54 | COc1c(C)c2c(c(O)c1C/C=C(\C)CCC(=O)O)C(=O)OC2 | 106
55 | CCC(C)(Oc1ccc(C2(c3ccc(OC(C)(CC)C(=O)O)cc3)CCCCC2)cc1)C(=O)O (centres undefined) | 131
56 | C[C@H]1C[C@H]2[C@@H]3CCC4=CC(=O)C=C[C@]4(C)[C@@]3(F)[C@@H](O)C[C@]2(C)[C@@]1(O)C(=O)CO | 142
57 | Cc1c(-c2cccc3c(CCCOc4cccc5ccccc45)c(C(=O)O)n(Cc4cccnc4)c23)c(COc2ccc(N3CCN([S+](=O)([O-])N(C)C)CC3)cc2)nn1C | 90.8
58 | OCc1ccc(-c2ccc(-c3ccc(CO)s3)o2)s1 | 117
59 | CC(C)[C@H]1C(=O)N[C@H](CO)Cc2c[nH]c3cccc(c23)N1C | 107
60 | [NH2][Pt]1([NH2])[O]CC(=O)[O]1 | 142
61 | COc1ccc(Cc2nccc3cc(OC)c(OC)cc23)cc1OC | 109
62 | Clc1ccc(COC(Cn2ccnc2)c2ccc(Cl)cc2Cl)c(Cl)c1 (centres undefined) | 92.5
63 | CCCC1=N[N](C)C2=C1\N=C(/NC2=O)C3=CC(=CC=C3OCC)[S+]([O-])(=O)N4CCN(C)CC4 | 74.6
64 | CCOC(CN1C(=O)[C@](CC(=O)Nc2ccc(C)cc2)(NC(=O)Nc2ccc(C)cc2)c2ccccc21)OCC | 129
